The values below come from paper PMC4201456, “Cytoxicity and Apoptotic Mechanism of Ruthenium(II) Amino Acid Complexes in Sarcoma-180 Tumor Cells” (PLoS ONE, 2014).

Holding throughout (type): cell-based, murine
For experiment [1], the system named is caspase 8. The experiment is described as follows: Real-time RT-PCR gene expression, caspase 8. The conditions noted are these: S180 cells, 40 µM, 6 h; p>0.05. As to the method: (§1) The S180 cells were treated with 40 µM complex 2 for 6 h. Total RNA was extracted with Trizol reagent (Sigma-Aldrich, USA) following the manufacturer's protocol. Total RNA (2.0 µg) was used to produce complementary DNA (cDNA) with random primers (Applied Biosystems, USA) in a 20 µL reaction mixture according to the manufacturer's protocol.
(§2) Real-time PCR was carried out using a Line Gene K (Bioer Technology) instrument. Real-time PCR reactions were carried out in a 20 µL reaction mixture, including 2 µL of cDNA, 10 µL of SYBR Green PCR Master Mix (LGC Biotechnology, UK), and 2.0 µL of 400 nM forward and reverse primers. The PCR program was initiated at 95°C for 15 min followed by 40 cycles of 95°C for 15 s, 55°C for 15 s, and 72°C for 30 s. The data were analyzed according to the comparative Ct method and were normalized to the β-actin reference gene expression in each sample.

The test system of experiment [2] is Bak protein. The experiment is described as follows: Western blot analysis of Bak protein. The settings on record: S180 cells, 60 µM, 24 h; normalized to β-actin; control 5.08. As for the experimental part:
The S180 cells were treated with 40 µM and 60 µM complex 2 for 24 h. Untreated cells maintained in media only were used as the control. After treatment, the cells were washed with PBS and lysed with lysis buffer (Invitrogen). The samples were stored at −20°C until further analysis. The protein concentrations of the resulting lysates were determined using the Bradford assay. A total of 70 µg of protein extract was mixed with Laemmli loading buffer and subjected to 12% SDS-PAGE at 100 V for 2 h, followed by electroblotting to nitrocellulose membranes (0.45 µm) (Bio-Rad Laboratories, Inc.) at 400 mA for 1.5 h. […] The membranes were washed in TBS-T, incubated with an HRP-conjugated IgG secondary antibody (Santa Cruz Biotechnology Inc., 1∶1000 dilution) for 1 h, and washed with TBS-T. The immunoreactive bands were detected using an ECL western blotting substrate (Super Signal West Pico Substrate, Thermo Scientific), and the ECL signals were captured using a CCD camera (ImageQuant LAS 4000 mini; GE Healthcare). The optical density of the target protein bands was measured using IMAGE J software downloaded from the NIH website (http://rsb.info.nih.gov.ij/) to compare the protein levels. […]
(In general: A western blot detects proteins with antibodies after separation by electrophoresis.)

The test system of experiment [3] is S180 tumor cells. The experiment is described as follows: MTT cell viability assay, S180 tumor cells. The conditions noted are these: S180 tumor cell line, 48 h. As for the experimental part: The murine sarcoma-180 tumor cells (S180) (ATCC# TIB-66) and normal murine fibroblast cells (L-929) (ATCC# CCL-1) were cultured in suspension in RPMI 1640 and DMEM media (Sigma Chemical Co., MO), respectively, supplemented with 10% fetal calf serum, 100 µg/mL penicillin, and 100 µg/mL streptomycin. The cultures were incubated in a humidified incubator (Thermo Scientific) at 37°C with 5% CO2.
The cytotoxic effects of the amino acid ruthenium complexes were evaluated using an MTT assay with S180 tumor cells and L929 normal cells as described previously. Briefly, 1.0×10^5 S180 cells and 2.0×10^4 L929 cells were plated in 96-well tissue culture plates and treated with different concentrations of amino acid ruthenium complexes (0.2–200 µM) for 48 h. After treatment, 10 µL of MTT (5 mg mL^−1) was added to each well, and the plates were incubated at 37°C for an additional 3 h. The purple formazan crystals were dissolved in 50 µL of SDS, and the absorbance was determined at 545 nm using a Stat Fax 2100 microplate reader (Awareness Technology, Palm City, FL, USA). The cell viability was calculated as follows: viability (%) = (absorbance of the treated wells)/(absorbance of the control wells) ×100. The IC50 (complex concentration (µM) that results in a 50% reduction in cellular viability) was obtained from dose-response curves using GraphPad Prism 4.02 for Windows (GraphPad Software, San Diego, CA, USA).
In general terms: Tetrazolium dyes change colour on reduction, which living cells bring about.

In experiment [4] the test system is caspase 9. The experiment is described as follows: Real-time RT-PCR gene expression, caspase 9. The conditions noted are these: S180 cells, 40 µM, 6 h; normalized to β-actin. As to the method:
as §1, §2
In general terms: In qPCR the cycle at which signal appears reflects the starting amount.

In experiment [5] the test system is caspase-8. The experiment in a line: Caspase activity colorimetric assay (IETD-pNA). The conditions noted are these: S180 cells, 40 µM, 24 h; control 100%. As to the method: (§3) Direct measurement of the activity of caspases 3, 8, and 9 were performed using the ApoTarget Caspase 3, 8, and 9 Protease Assay (Invitrogen) according to the manufacturer's recommendations. After treatment with complex 2 (40 µM and 60 µM) for 24 h, the cells were lysed with chilled cell lysis buffer. The protein concentration was then measured using the BSA Protein Assay Kit (BioRad). An aliquot of the protein extract (75 µg) was mixed with 50 µL of 2X reaction buffer supplemented with 10 mM DTT and the substrates of DEVD-pNA (caspase-3), IETD-pNA (caspase-8), or LEHD-pNA (caspase-9). The mixtures were then incubated for 2 h at 37°C. Subsequently, the formation of p-nitroanilide in the samples was measured using an ELISA microplate reader at 405 nm. The increases in the activities of caspase-3, caspase-8, and caspase-9 were determined by comparing the results with the control.

Experiment [6] has as its system caspase 3. The experiment is described as follows: Real-time RT-PCR gene expression, caspase 3. The conditions noted are these: S180 cells, 40 µM, 6 h; normalized to β-actin. As to the method: as §1, §2
In experiment [7] the test system is caspase-9. The experiment in a line: Caspase activity colorimetric assay (LEHD-pNA). The conditions noted are these: S180 cells, 40 µM, 24 h; control 100%. As for the experimental part: as §3
The subject of experiment [8] is caspase-3. The experiment is described as follows: Caspase activity colorimetric assay (DEVD-pNA). The conditions noted are these: S180 cells, 24 h, control 100%. As to the method:
as §3

Turning to `F[P-](F)(F)(F)(F)F.NCC(=O)[O-].[Ru+2].c1ccc(-c2ccccn2)nc1.c1ccc(P(CCCCP(c2ccccc2)c2ccccc2)c2ccccc2)cc1` [Complex 2, [Ru(gly)(bipy)(dppb)]PF6], the “expression level of caspase 8 compared with control” value in experiment [1] is “remained unchanged”. Besides, the “expression level of the Bak protein” value in experiment [2] was determined as 9.40 fold. The IC50 (commonly the midpoint of a concentration-inhibition curve) in experiment [3] was found to be 31.2 ± 4.19 µM. For the same compound, in experiment [4], the “expression level of caspase 9 compared to control” value is 1.83 fold. In addition, in experiment [5], the “activity of caspase-8” value stood at 127.22%. Further, in experiment [6], the “expression level of caspase 3 compared to control” value stood at 2.55 fold. For the same compound, the “activity of caspase-9” value in experiment [7] is recorded as 176.43%. For the same compound, the figures for the “activity of caspase-3” value in experiment [8] (40 µM) and in experiment [8] (60 µM) were 136.05% and 170.24%, respectively.
